In patent US11033535B2, “Oxadiazoles and thiadiazoles as TGF-β inhibitors” (Southern Research Institute, priority 2017, dated 2021):
Read-outs that look alike come from different tables or passages of the source.

Experiment: Pharmacokinetic evaluation following a single oral and intravenous administration
Assay type: in vivo, CD1 mouse
Method: A NMP stock solution was prepared by adding 1.136 mL of NMP to 5.68 mg of compound no. 42140 with vortexing and sonification, to obtain a solution with a concentration at 5 mg/mL of 42140:01. Next, to prepare an intravenous formulation, 0.100 mL of the 5 mg/mL stock solution was placed in a new vial. 0.100 mL of NMP and 0.400 mL of PEG400 were added with vortexing and sonification, followed by addition of 0.400 mL of saline with vortexing and sonification. […] 42140:01. Alternatively, to prepare an oral formulation, 0.200 mL of the 5 mg/mL stock solution was placed in a new vial. 0.400 mL of PEG400 was added with vortexing and sonification, followed by addition of 0.400 mL of saline with vortexing and sonifiction. […] 42140:01.
(§1) Briefly, the desired serial concentrations of working solutions were achieved by diluting a stock solution of the compound with 100% acetonitrile. 3 μL of working solutions (5, 10, 20, 50, 100, 500, 1000, 5000, 10000 ng/mL) were added to 30 μL of the blank CD1 mouse plasma to achieve calibration standards of 0.5-1000 ng/mL (0.5, 1, 2, 5, 10, 50, 100, 500, 1000 ng/mL) in a total volume of 33 μL. Five quality control samples at 1 ng/mL, 2 ng/mL, 5 ng/mL, 50 ng/mL and 800 ng/mL for plasma were prepared independently of those used for the calibration curves. These QC samples were prepared on the day of analysis in the same way as calibration standards.
Next, 33 μL standards, 33 μL QC samples, and 33 μL unknown samples (30 μL plasma with 3 μL blank solution) were added to 200 μL of acetonitrile containing IS mixture for precipitating protein, respectively. Then the samples were vortexed for 30 s. After centrifugation at 4 degree Celsius, 4000 rpm for 15 min, 3 μL of supernatant was injected into the LC/MS/MS system for quantitative analysis.
HPLC analysis was performed using 100% water with 0.1% formic acid (Solution A) and 100% acetonitrile with 0.1% formic acid (Solution B) with a flow rate of 0.6 mL/min.
A NMP stock solution was prepared by adding 2.092 mL of NMP to 10.46 mg of […] with vortexing and sonification, to obtain a solution with a concentration at 5 mg/mL of […]. Next, to prepare an intravenous formulation, 0.100 mL of the 5 mg/mL stock solution was placed in a new vial. 0.100 mL of NMP and 0.400 mL of PEG400 were added with vortexing and sonification, followed by addition of 0.400 mL of saline with vortexing and sonification. […] 42320:01. Alternatively, to prepare an oral formulation, 0.200 mL of the 5 mg/mL stock solution was placed in a new vial. 0.400 mL of PEG400 was added with vortexing and sonification, followed by addition of 0.400 mL of saline with vortexing and sonifiction. […] 42320:01.
as §1, with “50 ng/mL,” for “50 ng/mL”

[1] = CD1, mouse, plasma, po, 5 mg/kg, Table 11, PO Dose: 5 mg/kg, Mouse 4, read-out: Concentration
[2] = CD1, mouse, plasma, po, 5 mg/kg, Table 11, PO Dose: 5 mg/kg, Mouse 5, read-out: Concentration
[3] = CD1, mouse, plasma, po, 5 mg/kg, Table 11, PO Dose: 5 mg/kg, Mouse 6, read-out: Concentration
[4] = CD1, mouse, plasma, po, 5 mg/kg, Table 11, PO Dose: 5 mg/kg, mean, read-out: Concentration, Mean
[5] = Table 10, IV Dose: 1 mg/kg, Mouse 1
[6] = Table 10, IV Dose: 1 mg/kg, Mouse 2
[7] = Table 10, IV Dose: 1 mg/kg, Mouse 3
[8] = Table 10, IV Dose: 1 mg/kg, mean
[9] = Table 12, PO Dose: 5 mg/kg, Mouse 4
[10] = Table 12, PO Dose: 5 mg/kg, Mouse 5
[11] = Table 12, PO Dose: 5 mg/kg, Mouse 6
[12] = Table 12, PO Dose: 5 mg/kg, mean

CC(=O)N[C@@H](Cc1ccc(CN(C)C)cc1)c1nnc(-c2cccc(OC(F)(F)F)c2)s1 [Compound 42320, N-(2-(4-((dimethylamino)methyl)phenyl)-1-(5-(3-(trifluoromethoxy)phenyl)-1,3,4-thiadiazol-2-yl)ethyl)acetamide]
concentration at 2 h [1]: 165 ng/mL
concentration at 2 h [2]: 100 ng/mL
concentration at 2 h [3]: 105 ng/mL
concentration at 2 h [4]: 123 ng/mL
concentration at 4 h [1]: 88.4 ng/mL
concentration at 4 h [2]: 64.2 ng/mL
concentration at 4 h [3]: 77.7 ng/mL
concentration at 4 h [4]: 76.8 ng/mL
concentration at 8 h [1]: 49 ng/mL
concentration at 8 h [2]: 37.2 ng/mL
concentration at 8 h [3]: 37.4 ng/mL
concentration at 8 h [4]: 41.2 ng/mL
concentration at 24 h (CD1, mouse, plasma, po, 5 mg/kg, Table 11, PO Dose: 5 mg/kg, 24 h, Mouse 6, read-out: Concentration): 3.26 ng/mL
AUC(0-inf) (CD1, mouse, plasma, po, 5 mg/kg, Table 12, PO Dose: 5 mg/kg, Mouse 4, read-out: AUCInf): 1110 ng·h/mL
AUC(0-t) (CD1, mouse, plasma, po, 5 mg/kg, Table 12, PO Dose: 5 mg/kg, Mouse 4, read-out: AUClast): 856 ng·h/mL
Cmax (CD1, mouse, plasma, po, 5 mg/kg, Table 12, PO Dose: 5 mg/kg, Mouse 4, read-out: Cmax): 201 ng/mL
MRT inf (CD1, mouse, plasma, po, 5 mg/kg, Table 12, PO Dose: 5 mg/kg, Mouse 4, read-out: MRTInf—obs): 5.27 h
half-life (CD1, mouse, plasma, po, 5 mg/kg, Table 12, PO Dose: 5 mg/kg, Mouse 4, read-out: T1/2 (converted)): 3.56 h
AUC(0-inf) (CD1, mouse, plasma, po, 5 mg/kg, Table 12, PO Dose: 5 mg/kg, Mouse 5, read-out: AUCInf): 801 ng·h/mL
AUC(0-t) (CD1, mouse, plasma, po, 5 mg/kg, Table 12, PO Dose: 5 mg/kg, Mouse 5, read-out: AUClast): 569 ng·h/mL
Cmax (CD1, mouse, plasma, po, 5 mg/kg, Table 12, PO Dose: 5 mg/kg, Mouse 5, read-out: Cmax): 121 ng/mL
MRT inf (CD1, mouse, plasma, po, 5 mg/kg, Table 12, PO Dose: 5 mg/kg, Mouse 5, read-out: MRTInf—obs): 6.33 h
half-life (CD1, mouse, plasma, po, 5 mg/kg, Table 12, PO Dose: 5 mg/kg, Mouse 5, read-out: T1/2 (converted)): 4.31 h
AUC(0-inf) (CD1, mouse, plasma, po, 5 mg/kg, Table 12, PO Dose: 5 mg/kg, Mouse 6, read-out: AUCInf): 961 ng·h/mL
AUC(0-t) (CD1, mouse, plasma, po, 5 mg/kg, Table 12, PO Dose: 5 mg/kg, Mouse 6, read-out: AUClast): 940 ng·h/mL
Cmax (CD1, mouse, plasma, po, 5 mg/kg, Table 12, PO Dose: 5 mg/kg, Mouse 6, read-out: Cmax): 122 ng/mL
MRT inf (CD1, mouse, plasma, po, 5 mg/kg, Table 12, PO Dose: 5 mg/kg, Mouse 6, read-out: MRTInf—obs): 5.84 h
half-life (CD1, mouse, plasma, po, 5 mg/kg, Table 12, PO Dose: 5 mg/kg, Mouse 6, read-out: T1/2 (converted)): 4.42 h
AUC(0-inf) (CD1, mouse, plasma, po, 5 mg/kg, Table 12, PO Dose: 5 mg/kg, mean, read-out: AUCInf, Mean): 956 ng·h/mL
AUC(0-t) (CD1, mouse, plasma, po, 5 mg/kg, Table 12, PO Dose: 5 mg/kg, mean, read-out: AUClast, Mean): 788 ng·h/mL
Cmax (CD1, mouse, plasma, po, 5 mg/kg, Table 12, PO Dose: 5 mg/kg, mean, read-out: Cmax, Mean): 148 ng/mL
MRT inf (CD1, mouse, plasma, po, 5 mg/kg, Table 12, PO Dose: 5 mg/kg, mean, read-out: MRTInf—obs, Mean): 5.81 h
half-life (CD1, mouse, plasma, po, 5 mg/kg, Table 12, PO Dose: 5 mg/kg, mean, read-out: T1/2, Mean (converted)): 4.1 h
Tmax (CD1, plasma, Table 12, PO Dose: 5 mg/kg, Mouse 4): 0.5 h
Concentration (Table 9, IV Dose: 1 mg/kg, 24 h, Mouse 1): BLOQ
Concentration (Table 9, IV Dose: 1 mg/kg, 24 h, Mouse 2): BLOQ
Concentration (Table 9, IV Dose: 1 mg/kg, 24 h, Mouse 3): BLOQ
AUClast/D [5]: 169 h·ng/mL per mg/kg
AUC—% Extrap—obs [5]: 7.32%
Cl_obs [5]: 91.3 mL/min/kg
AUClast/D [6]: 153 h·ng/mL per mg/kg
AUC—% Extrap—obs [6]: 7.31%
Cl_obs [6]: 101 mL/min/kg
AUClast/D [7]: 172 h·ng/mL per mg/kg
AUC—% Extrap—obs [7]: 10.6%
Cl_obs [7]: 86.3 mL/min/kg
AUClast/D, Mean [8]: 165 h·ng/mL per mg/kg
AUC—% Extrap—obs, Mean [8]: 8.4%
C0, Mean [8]: 100 ng/mL
Cl_obs, Mean [8]: 93 mL/min/kg
Concentration (Table 11, PO Dose: 5 mg/kg, 24 h, Mouse 4): BLOQ
Concentration (Table 11, PO Dose: 5 mg/kg, 24 h, Mouse 5): BLOQ
AUClast/D [9]: 171 h·ng/mL per mg/kg
AUC—% Extrap—obs [9]: 22.7%
F [9]: 104%
AUClast/D [10]: 114 h·ng/mL per mg/kg
AUC—% Extrap—obs [10]: 28.9%
F [10]: 69.0%
AUClast/D [11]: 188 h·ng/mL per mg/kg
AUC—% Extrap—obs [11]: 2.16%
F [11]: 107%
AUClast/D, Mean [12]: 158 h·ng/mL per mg/kg
AUC—% Extrap—obs, Mean [12]: 17.9%
F, Mean [12]: 93%
